US4877779A, “2-aminomethylalkynylalkyl-1,3-dithiane derivatives” (priority 1988, dated 1989)
Structures can show the parent of a compound that is named as a salt.

These compounds were tested against T1, calcium channel (guinea-pig isolated ileal longitudinal smooth muscle) (Cavia porcellus, UniProt O35505) (assay: Calcium Channel Antagonist Activity in Guinea-Pig Isolated Ileal Smooth Muscle). Conditions: not given.
T1 construct: The longitudinal smooth muscle is carefully separated from the underlying circular muscle layer; from tissue; host or cells: guinea-pig ileal longitudinal smooth muscle
Format: cell-based
Source text: Calcium Channel Antagonist Activity in Guinea-Pig Isolated Ileal Smooth Muscle.
Male albino guinea-pigs are sacrificed by stunning and exsanguination. The abdominal cavity is opened and the small intestine is removed, with about 10 cm of the terminal ileum being discarded. The tissue is placed in a dish containing Tyrode's solution (composition, mM: […]; KCl 2.68; NaHCO3 11.90; NaH2 PO4 0.36; MgCl2 0.98; CaCl2 1.77; dextrose 5.55), and cut into three to four segments. A glass rod (6 mm diameter) is carefully inserted into the lumen of each segment, and excess connective tissue or fat is removed. The longitudinal smooth muscle is carefully separated from the underlying circular muscle layer by gently stroking a moist cotton swab on a tangent to shallow, longitudinal incisions made parallel to the mesenteric attachment. Using gentle traction, and taking care to keep the segment moist at all times, the preparation is stripped from the remaining length of the ileal segment (Paton & Zar, J. Physiol. 194, 13; 1968).
Each preparation is suspended in a 10 mL jacketed glass tissue bath containing Tyrode's solution maintained at 37° C. and gassed with 5% CO2 in O2. The preparation is attached by silk thread to a force-displacement transducer. […] The initial resting tension is adjusted to 0.5 g and the preparation equilibrated for 55 minutes prior to experimentation. At the end of this period, the bathing solution is replaced with Ca^2+ -free Tyrode's solution. This solution is prepared by omitting CaCl2. The preparation is washed four times in Ca^2+ -free Tyrode 's to remove any Ca^2+ remaining in the bath, and allowed to equilibrate for a further 20 minutes.
Concentration-response curves to CaCl2 are obtained using the following procedure. Preparations are exposed to a depolarizing concentration of KCl (80 mM) for 6 minutes. At the end of this period CaCl2 is added to the bath cumulatively in the concentration range 0.2-8.0 mM. Successive additions of each Ca^2+ concentration are carried out only when the previous response has reached a plateau. When the maximum response has been attained the bath is again washed (five times) with Ca^2+ -free buffer, and the preparation re-equilibrated for approximately 15 minutes. A second Ca^2+ concentration-response curve is then obtained in the same manner. This second curve serves as control for that tissue.
Further curves are obtained in the presence of increasing concentrations of the test drugs. Where appropriate, the test drug is added to the bath immediately following addition of KCl, and 6 minutes later the concentration-response curve to Ca^2+ is obtained. Each test preparation is exposed to three different concentrations of a test drug.
For each ileal preparation, the control EC50 for Ca^2+ (the concentration producing 50% of the maximum response) is determined from the control concentration-response curve. Calcium blocking activity is defined as a Kb value (the concentration producing a two-fold dextral shift in the control curve), calculated from EC50 ratios in the absence and presence of test drugs.

T1 sequence (O35505 whole entry): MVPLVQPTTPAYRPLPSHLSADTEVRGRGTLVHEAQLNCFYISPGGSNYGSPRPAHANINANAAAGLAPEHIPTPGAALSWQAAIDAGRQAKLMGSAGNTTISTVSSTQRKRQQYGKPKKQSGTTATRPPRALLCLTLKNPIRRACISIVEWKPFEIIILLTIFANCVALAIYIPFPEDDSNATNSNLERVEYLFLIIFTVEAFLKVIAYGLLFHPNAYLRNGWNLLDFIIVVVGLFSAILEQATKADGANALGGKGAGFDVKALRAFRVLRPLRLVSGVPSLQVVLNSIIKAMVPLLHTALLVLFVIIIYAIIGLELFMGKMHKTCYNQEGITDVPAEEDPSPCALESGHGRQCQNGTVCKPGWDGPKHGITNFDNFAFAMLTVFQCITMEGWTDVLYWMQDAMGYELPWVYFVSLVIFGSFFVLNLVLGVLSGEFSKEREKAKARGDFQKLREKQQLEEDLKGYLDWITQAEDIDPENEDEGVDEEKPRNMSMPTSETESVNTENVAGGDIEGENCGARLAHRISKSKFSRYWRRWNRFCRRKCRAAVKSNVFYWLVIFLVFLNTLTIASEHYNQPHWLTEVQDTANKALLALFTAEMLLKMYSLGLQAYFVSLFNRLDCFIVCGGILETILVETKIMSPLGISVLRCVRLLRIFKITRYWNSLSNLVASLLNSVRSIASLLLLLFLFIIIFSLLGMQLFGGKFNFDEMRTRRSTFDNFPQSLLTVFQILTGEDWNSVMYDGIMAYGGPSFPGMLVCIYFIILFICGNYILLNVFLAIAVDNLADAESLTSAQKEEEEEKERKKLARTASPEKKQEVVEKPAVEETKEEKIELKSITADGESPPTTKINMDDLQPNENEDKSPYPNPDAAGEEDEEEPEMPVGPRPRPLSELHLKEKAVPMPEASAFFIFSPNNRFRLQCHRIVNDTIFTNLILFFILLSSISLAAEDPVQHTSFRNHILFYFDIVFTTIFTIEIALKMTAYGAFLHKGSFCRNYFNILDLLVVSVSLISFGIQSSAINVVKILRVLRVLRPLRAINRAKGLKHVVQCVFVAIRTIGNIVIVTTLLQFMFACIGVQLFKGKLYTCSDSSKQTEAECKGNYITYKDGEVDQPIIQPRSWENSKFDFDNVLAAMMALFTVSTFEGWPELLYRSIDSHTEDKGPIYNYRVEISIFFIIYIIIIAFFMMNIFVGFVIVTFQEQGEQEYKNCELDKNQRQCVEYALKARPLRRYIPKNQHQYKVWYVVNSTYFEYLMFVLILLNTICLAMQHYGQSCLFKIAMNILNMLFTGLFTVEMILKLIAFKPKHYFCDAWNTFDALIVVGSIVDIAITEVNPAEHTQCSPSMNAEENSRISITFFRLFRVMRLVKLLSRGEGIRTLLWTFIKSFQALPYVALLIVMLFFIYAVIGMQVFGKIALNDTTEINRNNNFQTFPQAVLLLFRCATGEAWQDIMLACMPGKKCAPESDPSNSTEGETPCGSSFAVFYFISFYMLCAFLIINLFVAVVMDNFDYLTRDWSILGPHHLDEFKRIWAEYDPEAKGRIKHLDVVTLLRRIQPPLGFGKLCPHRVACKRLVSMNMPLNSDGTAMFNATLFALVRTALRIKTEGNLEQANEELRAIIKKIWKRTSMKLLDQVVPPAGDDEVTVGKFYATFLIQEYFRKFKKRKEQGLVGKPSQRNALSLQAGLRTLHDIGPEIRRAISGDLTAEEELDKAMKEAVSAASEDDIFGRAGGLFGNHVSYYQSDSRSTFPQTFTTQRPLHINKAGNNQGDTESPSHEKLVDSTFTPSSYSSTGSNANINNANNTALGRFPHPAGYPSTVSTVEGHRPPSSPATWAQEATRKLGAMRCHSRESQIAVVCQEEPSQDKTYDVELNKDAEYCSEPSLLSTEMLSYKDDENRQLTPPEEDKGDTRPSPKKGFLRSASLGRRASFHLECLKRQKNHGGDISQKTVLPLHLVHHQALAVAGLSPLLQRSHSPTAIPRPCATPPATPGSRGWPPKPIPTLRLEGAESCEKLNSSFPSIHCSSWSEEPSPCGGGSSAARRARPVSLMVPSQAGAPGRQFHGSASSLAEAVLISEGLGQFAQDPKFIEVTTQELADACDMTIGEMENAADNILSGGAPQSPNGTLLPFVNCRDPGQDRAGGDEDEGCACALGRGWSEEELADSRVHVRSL

Question: With `CCN(C)CC#CCCC1(C2(O)c3ccccc3-c3ccccc32)SCCCS1` [2-(5-Ethylmethylaminopent-3-ynyl)-2-(9-hydroxy-9H-fluoren-9-yl)-1,3-dithiane] as the compound, how does the Kb read?
Answer: 1230 ± 470 nM

Same assay, conditions: Kb = concentration producing a two-fold dextral shift in the control CaCl2 concentration-response curve; KCl (80 mM) depolarized ileal smooth muscle; read-out: Calcium antagonist Kb

Question: With `CCN(CC)CC#CCCC1(C2(O)CCOc3ccccc32)SCCCS1` (centres unmarked) [2(5-Diethylaminopent-3-ynyl)-2-(4-hydroxy-4H-chromanyl)-1,3-dithiane] as the compound, how does the Kb read?
Answer: 1940 ± 210 nM

Question: `CCN(CC)CC#CCCC1(C2(O)c3ccccc3-c3ccccc32)SCCCS1` [2(5-Diethylaminopent-3-ynyl)-2-(9-hydroxy-9H-fluoren-9-yl)-1,3-dithiane] was tested. Which Kb did it give?
Answer: 500 ± 100 nM

Question: With `CCCN(CC#CCC1(c2ccccc2)SCCCS1)CCC` [2-(4-Dipropylaminobut-2-ynyl)-2-phenyl-1,3-dithiane, Oxalate] as the compound, how does the Kb read?
Answer: 1010 ± 150 nM

Question: Which Kb does the source give for `CCN(CC)CC#CCC1(c2ccccc2)SCCCS1` [2-(4-diethylaminobut-2-ynyl)-2-phenyl-1,3-dithiane oxalate] here?
Answer: 4270 ± 430 nM

Question: For `CCN(CC)CC#CCCC1SCCCS1` [2-(5-Diethylaminopent-3-ynyl)-1,3-dithiane Oxalate], which Kb is on record?
Answer: > 10000 nM

Question: How did the Kb turn out when `CCN(CC)CC#CCCC1(C2(O)CCCc3ccccc32)SCCCS1` (centres unmarked) [2-(5-Diethylaminopent-3-ynyl)-2-(1-hydroxy-1,2,3,4-tetrahydro-1-naphthyl)-1,3-dithiane Hemioxalate] was run?
Answer: 830 ± 20 nM

Question: Which Kb does the source give for `CCN(CC)CC#CCCC1(C2(O)c3ccccc3Sc3ccc(Cl)cc32)SCCCS1` (centres unmarked) [2-(5-Diethylaminopent-3-ynyl)-2-(2-chloro-9-hydroxy-9H-thioxanthen-9-yl)-1,3-dithiane Oxalate] here?
Answer: 330 ± 50 nM

Question: With `CCN(CC)CC#CCCC1(C2(O)c3ccccc3C=Cc3ccccc32)SCCCS1` [2-(5-Diethylaminopent-3-ynyl)-2-(5-hydroxy-5H-dibenzo[a,d]cyclohepten-5-yl)-1,3-dithiane Oxalate] as the compound, how does the Kb read?
Answer: 300 nM

Question: For `CCN(CC)CC#CCCC1(C2(O)c3ccccc3Sc3ccccc32)SCCCS1` [2-(5-Diethylaminopent-3-ynyl)-2-(9-hydroxy-9H-thioxanthen-9-yl)-1,3-dithiane Oxalate], which Kb is on record?
Answer: 125 ± 18 nM

Question: With `CCN(CC)CC#CCCC1(C(O)(c2ccccc2)C2CCCCC2)SCCCS1` (stereo not drawn) [2-(5-Diethylaminopent-3-ynyl)-2-(α-cyclohexyl-α-hydroxybenzyl)-1,3-dithiane Hemioxalate] as the compound, how does the Kb read?
Answer: 1140 ± 21 nM

Question: With `CCN(CC)CC#CCCC1(C(O)(c2ccccc2)C2CCCC2)SCCCS1` (stereo not drawn) [2-(5-Diethylaminopent-3-ynyl)-2-(α-cyclopentyl-α-hydroxybenzyl-1,3-dithiane Oxalate] as the compound, how does the Kb read?
Answer: 500 nM

Question: `CCN(CC)CC#CCCC1(C(C)(O)c2ccccc2)SCCCS1` (stereo not drawn) [2-(5-Diethylaminopent-3-ynyl)-2-(α-hydroxy-α-methylbenzyl)-1,3-dithiane] was tested. Which Kb did it give?
Answer: 2510 ± 400 nM

Question: How did the Kb turn out when `CCN(CC)CC#CCCC1(C(O)(c2ccccc2)c2ccccc2)SCCCS1` [2-(5-Diethylaminopent-3-ynyl)-2-(α-hydroxy-α-phenylbenzyl)-1,3-dithiane Oxalate] was run?
Answer: 980 ± 160 nM

Question: With `CCN(CC)CC#CCCC1(C(c2ccccc2)c2ccccc2)SCCCS1` [2-(5-Diethylaminopent-3-ynyl)-2-benzhydryl-1,3-dithiane Oxalate Hydrate] as the compound, how does the Kb read?
Answer: 500 nM

Question: With `CCN(CC)CC#CCCC1(Cc2ccccc2)SCCCS1` [2-(5-Diethylaminopent-3-ynyl)-2-benzyl-1,3-dithiane Oxalate] as the compound, how does the Kb read?
Answer: 1960 ± 400 nM

Question: `CCN(CC)CC#CCCC1(c2ccccc2)SCCCS1` [2-(5-Diethylaminopent-3-ynyl)-2-phenyl-1,3-dithiane Oxalate] was tested. Which Kb did it give?
Answer: 900 ± 300 nM

Question: For `CN(C)CC#CCCC1SCCCS1` [2-(5-Dimethylaminopent-3-ynyl)-1,3-dithiane Oxalate], which Kb is on record?
Answer: > 10000 nM

Question: Which Kb does the source give for `CN(C)CC#CCCC1(C2(O)c3ccccc3Sc3ccc(Cl)cc32)SCCCS1` (centres unmarked) [2-(5-Dimethylaminopent-3-ynyl)-2-(2-chloro-9-hydroxy-9H-thioxanthen-9-yl)-1,3-dithiane] here?
Answer: 2330 ± 180 nM

Question: How did the Kb turn out when `CN(C)CC#CCCC1(C2(O)c3ccccc3-c3ccccc32)SCCCS1` [2-(5-Dimethylaminopent-3-ynyl)-2-(9-hydroxy-9H-fluoren-9-yl)-1,3-dithiane] was run?
Answer: 1810 ± 390 nM

Question: With `CN(C)CC#CCCC1(C2(O)c3ccccc3Sc3ccccc32)SCCCS1` [2-(5-Dimethylaminopent-3-ynyl)-2-(9-hydroxy-9H-thioxanthen-9-yl)-1,3-dithiane] as the compound, how does the Kb read?
Answer: 680 ± 130 nM

Question: How did the Kb turn out when `CN(C)CC#CCCC1(C2(O)c3ccccc3Oc3ccccc32)SCCCS1` [2-(5-Dimethylaminopent-3-ynyl)-2-(9-hydroxy-9H-xanthen-9-yl)-1,3-dithiane] was run?
Answer: 1150 ± 200 nM

Question: Which Kb does the source give for `CCN(C)CC#CCCC1SCCCS1` [2-(5-Ethylmethylaminopent-3-ynyl)-1,3-dithiane Oxalate] here?
Answer: > 10000 nM

Question: Which Kb does the source give for `CCN(C)CC#CCCC1(C2(O)c3ccccc3Sc3ccc(Cl)cc32)SCCCS1` (centres unmarked) [2-(5-Ethylmethylaminopent-3-ynyl)-2-(2-chloro-9-hydroxy-9H-thioxanthen-9-yl)-1,3-dithiane] here?
Answer: 2530 ± 1030 nM

Question: `CCN(C)CC#CCCC1(C2(O)c3ccccc3Sc3ccccc32)SCCCS1` [2-(5-Ethylmethylaminopent-3-ynyl)-2-(9-hydroxy-9H-thioxanthen-9-yl)-1,3-dithiane] was tested. Which Kb did it give?
Answer: 570 ± 120 nM

Question: With `CCN(C)CC#CCCC1(C2(O)c3ccccc3Oc3ccccc32)SCCCS1` [2-(5-Ethylmethylaminopent-3-ynyl)-2-(9-hydroxy-9H-xanthen-9-yl)-1,3-dithiane] as the compound, how does the Kb read?
Answer: 1510 ± 530 nM

Question: How did the Kb turn out when `C(#CCN1CCCCC1)CCC1SCCCS1` [2-(5-Piperidinylpent-3-ynyl)-1,3-dithiane Oxalate] was run?
Answer: > 10000 nM

Question: With `OC1(C2(CCC#CCN3CCCCC3)SCCCS2)c2ccccc2Sc2ccc(Cl)cc21` (centres unmarked) [2-(5-Piperidinylpent-3-ynyl)-2-(2-chloro-9-hydroxy-9H-thioxanthen-9-yl)-1,3-dithiane] as the compound, how does the Kb read?
Answer: 6090 ± 1560 nM

Question: `OC1(C2(CCC#CCN3CCCCC3)SCCCS2)c2ccccc2-c2ccccc21` [2-(5-Piperidinylpent-3-ynyl)-2-(9-hydroxy-9H-fluoren-9-yl)-1,3-dithiane] was tested. Which Kb did it give?
Answer: 1000 ± 70 nM

Question: For `OC1(C2(CCC#CCN3CCCCC3)SCCCS2)c2ccccc2Sc2ccccc21` [2-(5-Piperidinylpent-3-ynyl)-2-(9-hydroxy-9H-thioxanthen-9-yl)-1,3-dithiane], which Kb is on record?
Answer: 3660 ± 2040 nM

Question: For `OC1(C2(CCC#CCN3CCCCC3)SCCCS2)c2ccccc2Oc2ccccc21` [2-(5-Piperidinylpent-3-ynyl)-2-(9-hydroxy-9H-xanthen-9-yl)-1,3-dithiane], which Kb is on record?
Answer: 399 ± 40 nM

Question: For `C(#CCN1CCCC1)CCC1SCCCS1` [2-(5-Pyrrolidinylpent-3-ynyl)-1,3-dithiane Oxalate], which Kb is on record?
Answer: > 10000 nM

Question: With `CN(CC#CCCCC1SCCCS1)Cc1ccccc1` [2-(6-Benzylmethylaminohex-4-ynyl)-1,3-dithiane Oxalate] as the compound, how does the Kb read?
Answer: 4450 ± 160 nM

Question: With `CCN(CC)CC#CCCCC1SCCCS1` [2-(6-Diethylaminohex-4-ynyl)-1,3-dithiane Oxalate] as the compound, how does the Kb read?
Answer: > 10000 nM

Question: For `CCN(CC)CC#CCCCC1(C2(O)c3ccccc3-c3ccccc32)SCCCS1` [2-(6-Diethylaminohex-4-ynyl)-2-(9-hydroxy-9H-fluoren-9-yl)-1,3-dithiane], which Kb is on record?
Answer: 810 ± 220 nM

Question: How did the Kb turn out when `CCN(CC)CC#CCCCC1(C2(O)c3ccccc3Oc3ccccc32)SCCCS1` [2-(6-Diethylaminohex-4-ynyl)-2-(9-hydroxy-9H-xanthen-9-yl)-1,3-dithiane] was run?
Answer: 170 ± 20 nM

Question: Which Kb does the source give for `CCCN(CC#CCCCC1(C2(O)c3ccccc3-c3ccccc32)SCCCS1)CCC` [2-(6-Dipropylaminohex-4-ynyl)-2-(9-hydroxy-9H-fluoren-9-yl)-1,3-dithiane] here?
Answer: 560 ± 80 nM

Question: `CCCN(CC#CCCCC1(C2(O)c3ccccc3Sc3ccccc32)SCCCS1)CCC` [2-(6-Dipropylaminohex-4-ynyl)-2-(9-hydroxy-9H-thioxanthen-9-yl)-1,3-dithiane] was tested. Which Kb did it give?
Answer: 770 nM

Question: For `CCCN(CC#CCCCC1(C2(O)c3ccccc3Oc3ccccc32)SCCCS1)CCC` [2-(6-Dipropylaminohex-4-ynyl)-2-(9-hydroxy-9H-xanthen-9-yl)-1,3-dithiane], which Kb is on record?
Answer: 470 ± 150 nM

Question: For `CCN(CC)CC#CCCC(O)(c1ccccc1)C1SCCCS1` (centres unmarked) [2-(6-diethylamino-1-hydroxy-1-phenylhex-4-ynyl)-1,3-dithiane oxalate], which Kb is on record?
Answer: 6710 ± 1450 nM

Question: With `COc1ccc(CCN(C)CC#CCC2(c3ccccc3)SCCCS2)cc1OC` [2-[4-[2-(3,4-dimethoxyphenyl)ethyl]methylaminobut-2-ynyl]-2-phenyl-1,3-dithiane oxalate] as the compound, how does the Kb read?
Answer: 1170 ± 350 nM
